The values below come from US7371734B2, “Oligonucleotide compositions and their use for the modulation of immune responses” (Bioniche Life Sciences Inc., priority 2002, dated 2008).

Marks after values point to notes of the source that are not given here.

What all share (assay type): cell-based
The test system of data set [1] is Human dendritic cells. Description: Increase in cell size and granularity of DC (flow cytometry). The following applies: 100 μg polynucleotide, 48 hours. The method, then: (§1) Human dendritic cells were obtained from Clonetics (San Diego, Calif., USA) and were cultured in the medium recommended by Clonetics. DC were obtained from three different individuals (see Table 1). Major histocompatability typing was performed on each of these individuals and several of the HLA (human leukocyte antigens) types are shown.
DC were seeded in 1.0 ml at 1.0×10^5 cells/ml in 6-well flat-bottomed tissue culture plates for 48 hours with 100 μg of 6 base N1A, N1B, N2A, N2B, N3A, N3B, N4A, N4B, N5A, N5B, N6A, N6B, N7A or N7B polynucleotides. Cell size (FCS: forward side scatter) and granularity (S SC: side light scatter) were determined by flow cytometry using a FACSCalibur and analyzed using the CELLQuest Pro software (both from Becton-Dickinson, San Diego, Calif., USA). Percentage of DC showing a FCS>500 units and a SSC>400 units have been determined after treatment with 3-OH, 5-OH polynucleotides for DC isolated from three different individuals.
(A flow cytometer gives signals particle by particle.)

Data set [2] has as its system Human dendritic cells. Kind of data set: CD80 levels at the DC cell surface (flow cytometry). The settings on record: 100 μg, 48 hours. The method, then:
as §1
DC from individuals B and C were seeded in 1.0 ml at 1.0×10^5 cells/ml in 6-well flat-bottomed tissue culture plates for 48 hours with 100 μg of 6 base N1A, N1B, N2A, N2B, N3A, N3B, N4A, N4B, N5A, N5B, N6A, N6B, N7A or N7B polynucleotides. The level of CD80 at the cell surface was determined after 48 hours of incubation by flow cytometry using a FITC-conjugated monoclonal antibody directed to CD80 (Serotec, Oxford, U.K.) and analyzed by CELLQuest. Results are expressed as the percentage of CD80^hi DC following treatment.

The subject of data set [3] is Human dendritic cells. Kind of data set: CD86 levels at the DC cell surface (flow cytometry). The following applies: 100 μg, 48 hours. The method, then:
as §1
DC from individuals B and C were seeded in 1.0 ml at 1.0×10^5 cells/ml in 6-well flat-bottomed tissue culture plates for 48 hours with 100 μg of 6 base N1A, N1B, N2A, N2B, N3A, N3B, N4A, N4B, N5A, N5B, N6A, N6B, N7A or N7B polynucleotides. The level of CD86 at the cell surface was determined after 48 hours of incubation by flow cytometry using a PE-conjugated monoclonal antibody directed to CD86 (Serotec) and analyzed by CELLQuest Pro. Results are expressed as the percentage of CD86^hi DC following treatment.

In data set [4] the test system is Human dendritic cells. Kind of data set: Induction of IFN-gamma production by DC (ELISA). The following applies: 100 μg, 48 hours. As for the experimental part: as §1
DC were seeded in 1.0 ml at 1.0×10^5 cells/ml in 6-well flat-bottomed tissue culture plates for 48 hours with 100 μg of6 base N1A, N1B, N2A, N2B, N3A, N3B, N4A, N4B, N5A, N5B, N6A, N6B, N7A or N7B polynucleotides. Production of IFN-gamma was determined in 100 μl of culture supernatant using a commercial ELISA (BioSource) after 48 hours of incubation. Results are expressed as the “fold” (x) increase in IFN-gamma production by treated DC compared to control cells.
For orientation: An ELISA detects its analyte on a solid surface through an enzyme-linked reagent.

Data set [5] deals with Human dendritic cells. Description: CD40 levels at the DC cell surface (flow cytometry). The settings on record: 100 μg, 48 hours. The method, then:
as §1
DC from individuals B and C were seeded in 1.0 ml at 1.0×10^5 cells/ml in 6-well flat-bottomed tissue culture plates for 48 hours with 100 μg of 6 base N1A, N1B, N2A, N2B, N3A, N3B, N4A, N4B, N5A, N5B, N6A, N6B, N7A or N7B polynucleotides. The level of CD40 at the cell surface was determined after 48 hours of incubation by flow cytometry (FACSCalibur system) using a FITC-conjugated monoclonal antibody directed to CD40 and analyzed by CELLQuest Pro (all from Becton Dickinson). Results are expressed as the percentage of CD40^hi DC following treatment. The term “CD40^hi” refers to a population of cells identified by flow cytometry as having higher than baseline expression of CD40.

In data set [6] the test system is Human dendritic cells. Description: Induction of IL-12 production by DC (ELISA). The following applies: 100 μg, 48 hours. The method, then: as §1
DC were seeded in 1.0 ml at 1.0×10^5 cells/ml in 6-well flat-bottomed tissue culture plates for 48 hours with 100 μg of 6 base N1A, N1B, N2A, N2B, N3A, N3B, N4A, N4B, N5A, N5B, N6A, N6B, N7A or N7B polynucleotides. Production of IL-12 was determined in 100 μl of culture supernatant using a commercial ELISA (BioSource) after 48 hours of incubation. Results are expressed as the “fold” (x) increase in IL-12 production by treated DC compared to control cells.

The subject of data set [7] is Human dendritic cells. Kind of data set: Induction of IL-1beta production by DC (ELISA). The following applies: 100 μg, 48 hours. The method, then: as §1
DC were seeded in 1.0 ml at 1.0×10^5 cells/ml in 6-well flat-bottomed tissue culture plates for 48 hours with 100 μg of 6 base N1A, N1B, N2A, N2B, N3A, N3B, N4A, N4B, N5A, N5B, N6A, N6B, N7A or N7B polynucleotides. Production of IL-1beta was determined in 100 μl of culture supernatant using a commercial ELISA (BioSource, Camarillo, Calif., USA) after 48 hours of incubation. Results are expressed as the “fold” (x) increase in IL-1beta production by treated DC compared to control cells.

Data set [8] relates to Human dendritic cells. Description: MHC-II levels at the DC cell surface (flow cytometry). The following applies: DC from individual B; 100 μg, 48 hours. As for the experimental part:
as §1
DC from individual B were seeded in 1.0 ml at 1.0×10^5 cells/ml in 6-well flat-bottomed tissue culture plates for 48 hours with 100 μg of 6 base N1A, N1B, N2A, N2B, N3A, N3B, N5A, N5B, N6A, N6B, N7A or N7B polynucleotides. The level of MHC II at the cell surface was determined after 48 hours of incubation by flow cytometry using a FITC-conjugated monoclonal antibody directed to MHC II (Serotec) and analyzed by CELLQuest Pro. Results are expressed as the percentage of MHC II^hi DC following treatment.

The test system of data set [9] is Human dendritic cells. Kind of data set: Endocytosis of FITC-dextran by DC. The settings on record: DC from individual B, 100 μg, 24 hours, untreated control = 100. As for the experimental part: as §1
DC from individual B were seeded in 1.0 ml at 1.0×10^5 cells/ml in 6-well flat-bottomed tissue culture plates for 24 hours with 1 mg/ml of FITC-dextran (20 kDa; Sigma-Aldrich) in the absence or presence of 100 μg of 6 base N2A, N2B, N3A, N3B, N5A, N5B, and N6B polynucleotides at 4° C. (control cell surface binding of FITC-dextran) and 37° C. (to assess endocytosis). Cells were washed three times with ice-cold phosphate buffered saline and analyzed by flow cytometry using CELLQuest Pro. Results are expressed as relative endocytic rate (normalized Δ Mean Fluorescence Value (Δ MFV)). Δ MFV=MFV of DC exposed to FITC-dextran at 37° C.−MFV of DC exposed to FITC-dextran at 4° C. Δ MFV=(ΔMFVsequence/ΔMFVcontrol)×100.

5′GGGGGG3′ [N5B]: the “Percentage of DC showing a FCS > 500 units and a SSC > 400 units” value in the data set with Human dendritic cells [1] (DC isolated from individual A) was 53%; in the data set with Human dendritic cells [1] (DC isolated from individual B), 16%; in the data set with Human dendritic cells [1] (DC isolated from individual C), 23%. For the same substance, the “The percentage of CD80^hi DC following treatment” value is 3% in the data set on Human dendritic cells [2] (DC from individual B) and 10% in the data set with Human dendritic cells [2] (DC from individual C). Further, the entries for the “The percentage of CD86^hi DC following treatment” value in the data set with Human dendritic cells [3] (DC from individual B) and in the data set on Human dendritic cells [3] (DC from individual C) were 26** % and 31** %, respectively. Further, the “IFN-gamma production by DC (fold increase compared to untreated DC)” value in the data set on Human dendritic cells [4] (DC isolated from individual A) is 3.5 fold; in the data set with Human dendritic cells [4] (DC isolated from individual B), 5.0 fold; with Human dendritic cells [4] (DC isolated from individual C) it was 1.5 fold. Besides, the “The percentage of CD40^hi DC following treatment” value in the data set with Human dendritic cells [5] (DC from individual B) is 21%; in the data set on Human dendritic cells [5] (DC from individual C), 15%. In addition, the “IL-12 production by DC (fold increase compared to untreated DC)” value with Human dendritic cells [6] (DC isolated from individual A) is given as 7.5 fold; with Human dendritic cells [6] (DC isolated from individual B), 17.8 fold; with Human dendritic cells [6] (DC isolated from individual C), 15.0 fold. Also, the “IL-1beta production by DC (fold increase compared to untreated DC)” value in the data set with Human dendritic cells [7] (DC isolated from individual A) is reported as 5.0 fold; with Human dendritic cells [7] (DC isolated from individual B), 7.5 fold; with Human dendritic cells [7] (DC isolated from individual C) it was 3.7 fold. For the same substance, the “The percentage of MHC-II^hi DC following treatment” value in the data set on Human dendritic cells [8] is recorded as 18%. For the same substance, the “Relative endocytic rate (normalized Δ MFV)” value in the data set with Human dendritic cells [9] amounted to 151.
As for 5′GGTGGG3′ [N2B], the “Percentage of DC showing a FCS > 500 units and a SSC > 400 units” value with Human dendritic cells [1] (DC isolated from individual A) was determined as 42%; with Human dendritic cells [1] (DC isolated from individual B) it was 38%; in the data set with Human dendritic cells [1] (DC isolated from individual C), 50%. For the same substance, the “The percentage of CD80^hi DC following treatment” value in the data set with Human dendritic cells [2] (DC from individual B) turned out to be 7%; with Human dendritic cells [2] (DC from individual C) it was 8%. Moreover, the “The percentage of CD86^hi DC following treatment” value with Human dendritic cells [3] (DC from individual B) is given as 31** %; in the data set with Human dendritic cells [3] (DC from individual C), 53** %. The “IFN-gamma production by DC (fold increase compared to untreated DC)” value in the data set on Human dendritic cells [4] (DC isolated from individual A) is recorded as 1.2 fold; in the data set with Human dendritic cells [4] (DC isolated from individual B), 1.2 fold; with Human dendritic cells [4] (DC isolated from individual C), 1.0 fold. For the same substance, the results for the “The percentage of CD40^hi DC following treatment” value in the data set with Human dendritic cells [5] (DC from individual B) and in the data set with Human dendritic cells [5] (DC from individual C) were 22% and 37** %, respectively. Besides, the “IL-12 production by DC (fold increase compared to untreated DC)” value was 1.3 fold in the data set on Human dendritic cells [6] (DC isolated from individual A), 6.0 fold in the data set on Human dendritic cells [6] (DC isolated from individual B) and 2.5 fold in the data set on Human dendritic cells [6] (DC isolated from individual C). The “IL-1beta production by DC (fold increase compared to untreated DC)” value in the data set with Human dendritic cells [7] (DC isolated from individual A) amounted to 1.2 fold; with Human dendritic cells [7] (DC isolated from individual B), 1.4 fold; in the data set on Human dendritic cells [7] (DC isolated from individual C), 1.0 fold. The “The percentage of MHC-II^hi DC following treatment” value in the data set with Human dendritic cells [8] came out at 30%. Also, the “Relative endocytic rate (normalized Δ MFV)” value in the data set with Human dendritic cells [9] was 148.
For the substance 5′GGGGGG3′ [N5A] (unmodified DNA), the “Percentage of DC showing a FCS > 500 units and a SSC > 400 units” value turned out to be 10% in the data set with Human dendritic cells [1] (DC isolated from individual A), 19% in the data set with Human dendritic cells [1] (DC isolated from individual B) and 36% with Human dendritic cells [1] (DC isolated from individual C). Moreover, the figures for the “The percentage of CD80^hi DC following treatment” value in the data set with Human dendritic cells [2] (DC from individual B) and in the data set on Human dendritic cells [2] (DC from individual C) were 18% and 14%, respectively. Moreover, the figures for the “The percentage of CD86^hi DC following treatment” value with Human dendritic cells [3] (DC from individual B) and in the data set with Human dendritic cells [3] (DC from individual C) were 20% and 16%, respectively. For the same substance, the figures for the “IFN-gamma production by DC (fold increase compared to untreated DC)” value in the data set with Human dendritic cells [4] (DC isolated from individual A), with Human dendritic cells [4] (DC isolated from individual B) and in the data set on Human dendritic cells [4] (DC isolated from individual C) were 1.1 fold, 1.1 fold and 1.0 fold, respectively. Besides, the “The percentage of CD40^hi DC following treatment” value with Human dendritic cells [5] (DC from individual B) was 40** %; in the data set on Human dendritic cells [5] (DC from individual C), 30** %. Moreover, the “IL-12 production by DC (fold increase compared to untreated DC)” value is given as 0.9 fold in the data set on Human dendritic cells [6] (DC isolated from individual A), 1.1 fold in the data set with Human dendritic cells [6] (DC isolated from individual B) and 1.0 fold in the data set with Human dendritic cells [6] (DC isolated from individual C). Moreover, the figures for the “IL-1beta production by DC (fold increase compared to untreated DC)” value in the data set on Human dendritic cells [7] (DC isolated from individual A), with Human dendritic cells [7] (DC isolated from individual B) and in the data set on Human dendritic cells [7] (DC isolated from individual C) were 1.1 fold, 1.1 fold and 1.0 fold, respectively. For the same substance, the “The percentage of MHC-II^hi DC following treatment” value in the data set on Human dendritic cells [8] turned out to be 19%. In addition, the “Relative endocytic rate (normalized Δ MFV)” value with Human dendritic cells [9] came out at 209.
